According to patent US20110206720A1, “ANTI-INFLAMMATORY USAGE OF ANTRODIA CINNAMOMEA FRUIT BODY DERIVATIVES” (Taiwan Leader Biotech Corp, priority 2010, published 2011):

Columns and labels:
Format in all cases: cell-based, mice
mRNA of COX-2 = assay: COX-2 mRNA expression in LPS-treated RAW 267.4, RT-PCR; conditions: RAW 267.4, LPS; dose-dependent, higher dose; FIG. 4B
Method: (§1) Trizol reagent (Invitrogen Life Technologies, Carlsbad, Calif., USA) is used to extract the total RNA of macrophages. mRNA of iNOS, COX-2 and G3PDH is reversely transcribed to be cDNA by the RT-PCR, and then the expression of iNOS, COX-2 and G3PDH are quantified with the real time-PCR (Applied Biosystems).
(§2) Said real time-PCR detects the PCR products by DNA binding SYBR Green. The thermal cycles are: 95° C., 5 min, 1 min for 40 cycles at 95° C., 45 s for 55° C., and 30 s for 72° C. The sequence of primers is: iNOS forward 5′-TCC TAC ACC ACA CCA AAC-3′; iNOS reverse 5′-CTC CAA TCT CTG CCT ATC C-3′; COX-2 forward 5′-CCT CTG CGA TGC TCT TCC-3′, COX-2 reverse 5′-TCACACTTATACTGGTCAAATCC-3′, G3PDH forward 5′-TCA ACG GCA CAG TCA AGG-3′; G3PDH reverse 5′-ACT CCA CGA CAT ACT CAG C-3′. G3PDH are housekeeping genes which are genes with stable and large number of expression in cells and are used to standardize the expression of iNOS and COX-2 in the experiment.
(§3) In addition, total RNA and total protein are extracted from each group of macrophages. According to the paragraphs of RT-PCR and western blot analysis in Experiment I, the expression of iNOS and COX-2 are evaluated from the perspectives of mRNA and protein.

mRNA of iNOS = assay: iNOS mRNA expression in LPS-treated RAW 267.4, RT-PCR; conditions: RAW 267.4, LPS; dose-dependent, higher dose; FIG. 4A
Method: as §1, §2, §3

macrophage RAW 267.4 [1] = assay: LPS-elicited NO production in macrophage RAW 267.4, nitrite by Griess reaction; design: unit not given here; conditions: then LPS 1 g/ml 24 hours
Method: (§4) The invention chooses the macrophage RAW 267.4 of mice for the discussion about the production of NO and prostaglandin-E2 (PGE2). For the culture of RAW 267.4 cell, firstly inoculate RAW 267.4 macrophages growing in the culture plate (75 cm^2) in 96-well plate in the density of 2×10^5 cells/well and then culture them in the incubator (37° C., 5% CO2). DMEM culture medium is selected according to the recommendation of ATCC (American TypeCulture Collection), with 10% fetal bovine serum (FBS), penicillin (100 units/ml) and streptomycin ([…]) added.
Firstly, RAW 267.4 is cultured as detailed in Experiment I and divided into three groups: group 1 (ACE), group 2 (ACE-EA) and group 3 (ACE-water). For each group, add said ACE, ACE-EA and ACE-water of different concentrations (1, 10, 25, 50 g/ml) in the culture medium, add LPS to elicit RAW267.4 producing NO, and measure the content of nitrite after 24 hours by Griess reaction to indirectly measure the amount of NO.
NO activity inhibition tests are conducted on RAW 267.4 macrophages (see reference in Cell culture, Experiment I) to 17 fractions respectively. Firstly, divide RAW 267.4 cells into 17 groups, add 17 fractions (50 g/ml) in the culture medium, and then add LPS (1 g/ml) to elicit the production of NO. 24 hours later, Griess reaction is conducted to measure the content of nitrites and thus indirectly measuring the production of NO and calculating the inhibition rate of NO.
In the experiment of production of NO, firstly RAW 267.4 cells are cultured as Experiment I states, handled for 1 hour in antrocamphin A (1, 5, 10, 20 g/ml) or curcumin (10 g/ml), and then processed for 24 hours with LPS (1 g/ml). Then, Griess reaction is conducted to measure the content of nitrites and thus indirectly obtaining the production of NO.

macrophage RAW 267.4 [2] = assay: LPS-elicited prostaglandin-E2 (PGE2) production in macrophage RAW 267.4, ELISA; design: unit not given here; conditions: RAW 267.4, aspirin 3 hours, then LPS 1 g/ml 16 hours
Method: as §4
In the experiment for measuring the production of prostaglandin-E2 (PGE2), firstly RAW 267.4 cells are cultured as Experiment I states and […] aspirin is added in the culture medium for 3 hours so that the endogenous COX-1 is deactivated. Then, they are handled for 1 hour in antrocamphin A (1, 5, 10, 20 g/ml) or curcumin (10 g/ml) and processed for 16 hours with LPS (1 g/ml). Finally, supernatant liquid in the cell culture is measured by ELISA kit (Cayman Chemicals) so as to get the production of prostaglandin-E2 (PGE2) in endogenous arachidonic acid.

iNOS = iNOS protein expression in LPS-treated RAW 267.4, western blot; conditions: RAW 267.4, LPS; dose-dependent, especially at […]; FIG. 5A
Method: (§5) After getting the total protein of macrophages, add the equal amount of protein in 5˜7% SDS-PAGE, resolve for 90 m at 300 mA, blotting (100V, 1 hour) proteins resolved in different sizes to polyvinylidene difluoride (PVDF, Immobilon, Millipore, Bedford, Mass.), and then put PVDF in the blocking buffer (10% w/v skim milk powder in TBST) for 1 hour.
(§6) Then, dip PVDF in the anti-iNOS solution (1:1000, Cayman Chemicals) and clean twice with 0.1% TBST buffer (TBS buffer containing 0.1% Tween 20) to clear the non-specific bonded antibody and antigen.
(§7) Next, dip PVDF in the anti-rabbit secondary antibodies solution with horseradish peroxidase, detect the fluorescence density of each group by enhanced chemiluminescene regents (ECL, Pierce), and take the expression of β-actin as the reference group.
as §3

macrophage RAW 267.4 [3] = assay: MTT test of toxicity to cells (cell survival rate)
Method: The invention chooses the macrophage RAW 267.4 of mice for the discussion about the production of NO and prostaglandin-E2 (PGE2). For the culture of RAW 267.4 cell, firstly inoculate RAW 267.4 macrophages growing in the culture plate (75 cm^2) in 96-well plate in the density of 2×10^5 cells/well and then culture them in the incubator (37° C., 5% CO2). DMEM culture medium is selected according to the recommendation of ATCC (American TypeCulture Collection), with 10% fetal bovine serum (FBS), penicillin (100 units/ml) and streptomycin ([…]) added. In addition, the familiar MTT is utilized to test the toxicity of Antrocamphin A to cells. Said MTT is a method for detecting cell survival rate or cell proliferation in biology on principle that succinate dehydrogenase in the mitochondria of live cell metabolizes tetrazolium of MTT to be blue products. After DMSO is added to resolve the blue metabolized products accumulated in cells, the amount of blue metabolized products is measured by spectrometer to indirectly calculate the number of live cells.

COX-2 = COX-2 protein expression in LPS-treated RAW 267.4, western blot; conditions: RAW 267.4, LPS; dose-dependent, especially at 20 µg/ml; FIG. 5B
Method: as §5, §6, §7, §3

Row | Compound | expression of mRNA of COX-2 (mRNA of COX-2) | expression of mRNA of iNOS (mRNA of iNOS) | Production of NO (M) (macrophage RAW 267.4 [1]; RAW 267.4, 1 g/ml for 1 hour) | Production of NO (M) (macrophage RAW 267.4 [1]; RAW 267.4, 5 g/ml for 1 hour) | Production of NO (M) (macrophage RAW 267.4 [1]; RAW 267.4, 10 g/ml for 1 hour) | Production of NO (M) (macrophage RAW 267.4 [1]; RAW 267.4, 20 g/ml for 1 hour) | Production of prostaglandin-E2 (PGE2) (macrophage RAW 267.4 [2]; 1 g/ml for 1 hour) | Production of prostaglandin-E2 (PGE2) (macrophage RAW 267.4 [2]; 5 g/ml for 1 hour) | Production of prostaglandin-E2 (PGE2) (macrophage RAW 267.4 [2]; 10 g/ml for 1 hour) | Production of prostaglandin-E2 (PGE2) (macrophage RAW 267.4 [2]; 20 g/ml for 1 hour) | expression of iNOS (protein) (iNOS) | Cell survival rate (%) (macrophage RAW 267.4 [3]; MTT, RAW 267.4, 1 g/ml, with LPS) | Cell survival rate (%) (macrophage RAW 267.4 [3]; MTT, RAW 267.4, 5 g/ml, with LPS) | Cell survival rate (%) (macrophage RAW 267.4 [3]; MTT, RAW 267.4, 10 g/ml, with LPS) | Cell survival rate (%) (macrophage RAW 267.4 [3]; MTT, RAW 267.4, 20 g/ml, with LPS) | expression of COX-2 (protein) (COX-2) | Cell survival rate (%) (macrophage RAW 267.4 [3]; mouse, 10 g/ml)
1 | C=C(C)C#Cc1c(OC)cc(OC)c(OC)c1C [antrocamphin A, Antrocamphin A] | effectively reduce the amount of mRNA of iNOS and COX-2 | effectively reduce the amount of mRNA of iNOS and COX-2 | 18 ± 0.36 | 14.68 ± 0.54 | 11.14 ± 0.18 | 7.27 ± 0.18 | 411.5 ± 20.92 | 360.9 ± 23.95 | 237.96 ± 83.85 | 24.62 ± 15.36 | effectively reduce the expression of iNOS and COX-2 | 93 ± 4.13 | 92 ± 5.49 | 89 ± 3.22 | 79 ± 3.54 | effectively reduce the expression of iNOS and COX-2 | 
2 | COc1cc(/C=C/C(=O)CC(=O)/C=C/c2ccc(O)c(OC)c2)ccc1O [curcumin, reference compound] |  |  |  |  |  |  |  |  | 6.82 ± 5.2 |  |  |  |  |  |  |  | 76 ± 4.6
